According to the CheMixHub viscosity set:
± gives the uncertainty stated by the source.

Test: xn = mol fraction of the nth substance listed

CCCCCCCCCCCCCC[P+](CCCCCC)(CCCCCC)CCCCCC.c1ccc2[n-]nnc2c1 + O=C=O
Settings	viscosity [mPa·s]
298.15 K, 100 kPa, x2 = 0.19	443 ± 18

CCCCN(CCC#N)CCCC + O=S=O
303.15 K, 100 kPa
Settings	viscosity [mPa·s]
x2 = 0.17	4.1
x2 = 0.34	8
x2 = 0.45	13.8

OC1CCCCC1 + OC1CCCC1
viscosity [mPa·s], 100 kPa
Settings	x2 = 0.1	x2 = 0.3	x2 = 0.5	x2 = 0.7	x2 = 0.9
303.15 K	34.92 ± 0.36	23.18 ± 0.3	16.54 ± 0.23	12.51 ± 0.19	9.2 ± 0.18
308.15 K	27.86 ± 0.34	19.17 ± 0.25	13.78 ± 0.2	10.67 ± 0.18	7.88 ± 0.17
313.15 K	21.32 ± 0.29	15.13 ± 0.23	11.11 ± 0.19	8.78 ± 0.18	6.57 ± 0.17
318.16 K	16.48 ± 0.24	11.96 ± 0.2	9.04 ± 0.18	7.2 ± 0.17	5.49 ± 0.17

CC1(C)OCC(CO)O1 (configuration not stated) + OCC(O)CO
viscosity [mPa·s], 101 kPa
Settings	x1 = 0.1	x1 = 0.2015	x1 = 0.3	x1 = 0.4012	x1 = 0.499	x1 = 0.6002	x1 = 0.7	x1 = 0.801	x1 = 0.9003
298.15 K	803.5 ± 46	702.6 ± 39	600.8 ± 31	502.2 ± 25	407.7 ± 19	319.4 ± 14	243.3 ± 9.3	163.1 ± 5.4	84.15 ± 2.3
308.15 K	356.9 ± 16	310 ± 13	262 ± 11	212.8 ± 8.3	167.1 ± 6.2	129.5 ± 4.5	97.75 ± 3.2	69.56 ± 2.1	35.83 ± 1.1
318.15 K	175.4 ± 6.6	150 ± 5.4	123.5 ± 4.3	98.86 ± 3.3	75.9 ± 2.5	54.95 ± 1.9	43.91 ± 1.5	31.63 ± 1.1	16.65 ± 0.52

CCOC(=O)C(C)O (configuration not stated) + OCCCO
101 kPa
Settings	viscosity [mPa·s]
298.15 K, x1 = 0.4996	9.585 ± 0.18
303.15 K, x1 = 0.3	14.35 ± 0.28
303.15 K, x1 = 0.8	3.405 ± 0.066
313.15 K, x1 = 0.3998	7.365 ± 0.14
318.15 K, x1 = 0.3	8.235 ± 0.16
323.15 K, x1 = 0.5997	3.235 ± 0.062

CC1(C)OCC(CO)O1 (configuration not stated) + OCCO
viscosity [mPa·s], 101 kPa
Settings	x1 = 0.0997	x1 = 0.2	x1 = 0.3008	x1 = 0.3988	x1 = 0.5014	x1 = 0.6	x1 = 0.7003	x1 = 0.8	x1 = 0.8997
298.15 K	15.54 ± 0.34	14.27 ± 0.31	12.57 ± 0.28	11.4 ± 0.25	10.31 ± 0.23	9.722 ± 0.22	9.762 ± 0.22	9.801 ± 0.22	9.695 ± 0.23
308.15 K	10.5 ± 0.23	9.645 ± 0.21	8.569 ± 0.19	7.712 ± 0.17	6.932 ± 0.16	6.525 ± 0.15	6.516 ± 0.15	6.912 ± 0.16	6.889 ± 0.16
318.15 K	7.537 ± 0.17	6.894 ± 0.15	6.139 ± 0.14	5.409 ± 0.12	4.898 ± 0.11	4.639 ± 0.11	4.882 ± 0.11	5.057 ± 0.12	5.085 ± 0.12

OC1CCCCC1 + OCCO
viscosity [mPa·s], 100 kPa
Settings	293.15 K	298.15 K	303.15 K	308.15 K	313.15 K	318.15 K
x1 = 0.0097	20.9 ± 3	16.96 ± 3	13.79 ± 3	11.32 ± 3	9.626 ± 3	7.932 ± 3
x1 = 0.0396	21.26 ± 3	17.11 ± 3	13.94 ± 3	11.35 ± 3	9.765 ± 3	8.069 ± 3
x1 = 0.058	21.37 ± 3	17.21 ± 3	14.04 ± 3	11.44 ± 3	9.849 ± 3	8.139 ± 3
x1 = 0.088	21.54 ± 3	17.34 ± 3	14.16 ± 3	11.54 ± 3	9.965 ± 3	8.26 ± 3
x1 = 0.1001	21.6 ± 3	17.4 ± 3	14.2 ± 3	11.58 ± 3	10 ± 3	8.294 ± 3
x1 = 0.1963	21.79 ± 3	17.59 ± 3	14.34 ± 3	11.66 ± 3	10.09 ± 3	8.427 ± 3
x1 = 0.3051	21.94 ± 3	17.71 ± 3	14.45 ± 3	11.76 ± 3	10.19 ± 3	8.481 ± 3
x1 = 0.397	22.13 ± 3	17.96 ± 3	14.66 ± 3	12.02 ± 3	10.42 ± 3	8.606 ± 3
x1 = 0.4994	23.25 ± 3	18.43 ± 3	15.1 ± 3	12.54 ± 3	10.71 ± 3	8.723 ± 3
x1 = 0.5878	26.46 ± 3	20.22 ± 3	16.33 ± 3	12.82 ± 3	11.32 ± 3	9.179 ± 3
x1 = 0.6994	31.25 ± 3.1	23.24 ± 3	18.88 ± 3	14.44 ± 3	12.15 ± 3	9.912 ± 3
x1 = 0.7971	38.27 ± 3.1	28.43 ± 3	22.87 ± 3	17.78 ± 3	14.34 ± 3	11.34 ± 3
x1 = 0.8978	53.55 ± 3.1	38 ± 3.1	28.77 ± 3	22.38 ± 3	17.93 ± 3	13.99 ± 3
